Earlier results, collected in patent US20220265565A1, “NANOTECHNOLOGY-BASED DELIVERY SYSTEM OF BERGAMOT ESSENTIAL OIL, METHOD OF PREPARATION OF THE SYSTEM AND USES THEREOF” (priority 2019, published 2022).

Experiments:
[1] = about 0.2% in the nonvolatile residue of BEO
[2] = tested on: nociceptive response in the capsaicin test; settings: for nociceptive response in the capsaicin test: intraplantar (i.pl.) administration
[3] = tested on: PSNL-induced neuropathic pain symptoms in mice

For `COc1c2ccoc2cc2oc(=O)ccc12` [bergapten, 5-methoxypsoralen], the phototoxicity [1] is given as “responsible for the phototoxicity of BEO”.

In the case of `C=CC(C)(O)CCC=C(C)C` (stereo not drawn) [linalool], the “nociceptive response in the capsaicin test” value [2] is listed as “reduced the nociceptive response”, the “morphine-induced antinociception with combined injection” value ([2]; morphine i.p. or i.t. combined with i.pl. injection of the substance) is listed as “markedly enhanced” and the “neuropathic pain symptoms / mechanical allodynia” value ([3]; neuropathic pain models, PSNL mice, i.pl. injection) is listed as “reduced partial sciatic nerve ligation (PSNL)-induced neuropathic pain symptoms”. For the same compound, the morphine-induced anti-allodynic effect ([3]; under neuropathic pain) was “modulate morphine-induced anti-allodynic effect”.

In the case of `C=CC(C)(CCC=C(C)C)OC(C)=O` (stereo not drawn) [linalyl acetate], the “nociceptive response in the capsaicin test” value [2] is given as “reduced the nociceptive response”.
